Results on ten molecules are retold here after US20260232713A1, “PLECOMACROLIDE DERIVATIVES FOR MHC-I NEF DOWNMODULATION” (priority 2022, published 2026).

Data set [1] deals with primary CD4+ T cells. Nature of the data set: in vitro. Conditions: for Viability:Nef (therapeutic window separating Nef IC50 and TC50): ratio TC50 to Nef IC50; for CC50: read-out: Viability (TC50), mock primary CD4+ T cells, 72 hours after treatment.
For data set [2], the target named is T1, HIV-Nef (Human immunodeficiency virus type 1, UniProt P03406).
T1 sequence (P03406 2-206): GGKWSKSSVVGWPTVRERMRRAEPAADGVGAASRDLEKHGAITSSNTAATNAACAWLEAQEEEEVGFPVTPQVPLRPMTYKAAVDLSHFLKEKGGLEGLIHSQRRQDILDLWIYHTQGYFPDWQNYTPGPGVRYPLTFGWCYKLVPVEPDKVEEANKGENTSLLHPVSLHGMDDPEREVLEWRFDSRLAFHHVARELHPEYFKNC
Nature of the data set: Inhibition of HIV-Nef downmodulation of MHC-I HLA-A2 on the surface of HIV ΔGPE infected primary CD4+ T cells (flow cytometry). It counts as cell-based. Conditions: for IC50 / Nef (Nef IC50): HLA-A2 surface expression, ΔGPE infected primary CD4+ T cells, 24 hours after treatment. On the technique in general: A flow cytometer gives signals particle by particle.

Data set [3] deals with T2, V-ATPase (Homo sapiens, UniProt P27449).
T2 construct: endogenous in cells; host or cells: primary CD4+ T cells (HIV ΔGPE infected) from donor PBMCs
T2 sequence (P27449 whole entry, looked up): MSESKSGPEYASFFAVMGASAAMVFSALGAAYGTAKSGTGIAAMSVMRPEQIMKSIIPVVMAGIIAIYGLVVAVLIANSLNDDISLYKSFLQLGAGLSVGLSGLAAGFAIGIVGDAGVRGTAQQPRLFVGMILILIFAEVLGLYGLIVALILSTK
Nature of the data set: Lysosomal acidification (Lysotracker mean fluorescence intensity) as indicator of V-ATPase activity in primary CD4+ T cells. Type of data set: cell-based.

Data set [4] in a line: in vitro. Conditions: human.
Data set [5] has as its system V-ATPase. Conditions: literature report; cited from earlier work.
For data set [6], the target named is T1, HIV-Nef. Conditions: literature report; cited from earlier work.
Where [7] appears, read: Lysotracker Red, ΔGPE infected primary CD4+ T cells, 24 hours after treatment, read-out: Lysotracker (V-ATPase IC50, lysosomal neutralization).
[8] abbreviates: Lysotracker Red, ΔGPE infected primary CD4+ T cells, 24 hours after treatment.

“Also recorded” adds a separate entry of the source. Where two headings read alike, the source gives them in different places. Bounds are passed on as bounds.

Regarding 21-Deoxy CMF [Compound S24], the “Viability:Nef (therapeutic window separating Nef IC50 and TC50)” value (from here on “Viability:Nef”) in data set [1] was found to be 2.2 fold. Further, the CC50 in data set [1] came out at 0.0094 µM. Further, the IC50 (commonly the point on the concentration scale where inhibition reaches its midpoint) in data set [2] is 0.0045 µM; in data set [3] (setting [7]), 0.032 µM.

As to `CNC(=O)O[C@@H](CC(C)C)c1nc([C@H]2OC(=O)/C(C)=C/C/C(C)=C/[C@@H](O)[C@@H](C)\C=C(C)/C=C(C)\C=C\[C@@H](O)[C@H](C)[C@H](OC)/C(C)=C/C=C/[C@@H]2C)cs1` [Compound 3, Archazolid A, reference compound], the results for the IC50 in data set [2] and in data set [3] (setting [7]) were 0.00047 µM and 0.0016 µM, respectively.

Regarding `CO/C1=C\C(C)=C\[C@@H](C)C(=O)[C@@H](C)C/C(C)=C/C=C/[C@H](OC)[C@@H]([C@@H](C)[C@@H](O)[C@H](C)[C@@]2(O)C[C@@H](O)[C@H](C)[C@@H](C(C)C)O2)OC1=O` [Compound S17], in data set [4], the CC50 at 72 h is > 1 µM. Also, in data set [2], the “Nef (Nef IC50)” value is listed as “abrogation of activity at all concentrations tested; also recorded: above the activity threshold”. The IC50 in data set [3] was > 1 µM. For the same molecule, the “Lysotracker (V-ATPase IC50, lysosomal neutralization)” value in data set [3] (setting [8]) was “above the activity threshold”.

On to `CO/C1=C\C(C)=C\[C@@H](C)C(=O)[C@@H](C)C/C(C)=C/C=C/[C@H](OC)[C@@H]([C@@H](C)[C@@H](O)[C@H](C)[C@@]2(O)CC(=O)[C@H](C)[C@@H](C(C)C)O2)OC1=O` [Compound S18], for which the CC50 in data set [4] is > 1 µM. In addition, in data set [2], the “Nef (Nef IC50)” value was “above the activity threshold”. Besides, the IC50 in data set [3] is > 1 µM. In addition, in data set [3] (setting [8]), the “Lysotracker (V-ATPase IC50, lysosomal neutralization)” value was “above the activity threshold”.

As to `C/C=C/[C@H]1O[C@@H]([C@@H](C)[C@H](O)[C@H](C)[C@H]2OC(=O)/C(OC)=C/C(C)=C/[C@@H](C)[C@@H](O)[C@@H](CC)[C@@H](O)[C@H](C)C/C(C)=C/C=C/[C@@H]2O)C[C@@H](O)[C@@H]1C` [Compound S25, 21-Deoxy-16-Hydroxy CMF], the CC50 in data set [1] was > 1 µM. The 50% inhibitory concentration (IC50) was 0.4 µM in data set [2] and > 1 µM in data set [3] (setting [7]). Also, in data set [2] (comparator CMF (6)), the “Fold reduction of activity compared to 6” value was “over 200 fold”.

Regarding `CC[C@H]1OC(=O)[C@H](C)[C@@H](O)[C@H](C)[C@@H](O)[C@@H](C)C[C@@H](C)C(=O)[C@H](C)[C@@H](O)[C@H]1C` [Compound S31, 6-deoxyerythronolide B, reference compound], the CC50 in data set [1] was > 1 µM. In addition, the IC50 in data set [2] and in data set [3] (setting [7]) was > 1 µM throughout.

In data set [4], `CO/C1=C\C(C)=C\[C@@H](C)[C@@H](O)[C@@H](C)C/C(C)=C/C=C/[C@H](OC)[C@@H]([C@@H](C)[C@@H](O)[C@H](C)[C@@]2(O)C[C@@H](OC=O)[C@H](C)[C@@H](C(C)C)O2)OC1=O` [Compound S61] gave a CC50 of 0.0073 µM. Besides, the “Viability:Nef” value in data set [1] was 2.6 fold. This molecule also registered a half-maximal inhibitory concentration (IC50) in data set [3] of 0.012 µM.

Take `C/C=C/[C@H]1O[C@@H]([C@@H](C)[C@H](O)[C@H](C)[C@H]2OC(=O)/C(OC)=C/C(C)=C/[C@@H](C)[C@@H](O)[C@@H](CC)[C@@H](O)[C@H](C)C/C(C)=C/C=C/[C@@H]2OC)C[C@@H](O[C@@H]2C[C@H](O)[C@@H](O)[C@H](C)O2)[C@@H]1C` [Compound S62, 21-Deoxy CMC]: the CC50 in data set [4] came to 0.002 µM. Besides, the “Viability:Nef” value in data set [1] came out at 1.8 fold. In data set [3], this molecule yielded a half-inhibitory concentration (IC50) of 0.006 µM.

“Elaiophylin [Compound S16, reference compound]”: the CC50 in data set [1] came to 0.16 µM. Besides, in data set [2], the IC50 was 0.25 µM. Further, the “Fold decrease in Nef potency compared to 2” value in data set [2] ([…]) amounted to 20 fold.

Regarding bafilomycin D, the “V-ATPase inhibition (previously reported)” value in data set [5] was “low level V-ATPase inhibition”. In data set [6], the “Potency as a Nef inhibitor (previously reported)” value is “very poor potency”.
